In BindingDB's records for doi:10.1074/jbc.M113.529529 (The University of Tokyo, 2014):

Legend:
Test in all cases: β-Gal Inhibitory Assay
Settings in all cases: pH 4.5; 37 °C
[1] = target: T1, Beta-galactosidase [24-677] (Human, UniProt P16278)
T1 construct: 24-677
T1 sequence (P16278 whole entry): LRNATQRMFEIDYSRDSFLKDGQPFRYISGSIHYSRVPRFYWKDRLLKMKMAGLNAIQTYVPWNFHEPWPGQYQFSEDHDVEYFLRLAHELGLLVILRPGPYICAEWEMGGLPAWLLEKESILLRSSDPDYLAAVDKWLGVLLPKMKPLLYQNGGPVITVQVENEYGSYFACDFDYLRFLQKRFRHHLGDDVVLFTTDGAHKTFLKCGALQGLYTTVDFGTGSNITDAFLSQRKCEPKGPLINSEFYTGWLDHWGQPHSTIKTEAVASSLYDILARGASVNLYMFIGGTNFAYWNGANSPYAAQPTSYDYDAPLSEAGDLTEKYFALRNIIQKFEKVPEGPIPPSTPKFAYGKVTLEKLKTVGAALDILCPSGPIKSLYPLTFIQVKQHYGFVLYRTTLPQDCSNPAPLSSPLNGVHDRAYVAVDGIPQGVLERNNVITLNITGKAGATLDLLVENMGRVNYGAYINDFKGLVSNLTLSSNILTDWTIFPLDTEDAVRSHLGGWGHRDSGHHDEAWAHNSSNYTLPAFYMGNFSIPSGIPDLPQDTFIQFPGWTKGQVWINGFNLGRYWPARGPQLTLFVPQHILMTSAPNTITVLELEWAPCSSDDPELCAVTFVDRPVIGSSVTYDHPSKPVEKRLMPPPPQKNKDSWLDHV
Method: (§1) β-Gal activity was measured by using 4-methylumbelliferyll-β-D-galactopyranoside in buffer B (0.15 M sodium citrate, pH 4.5, and 0.2 M NaCl) as a substrate, and incubating at 37 °C for 6 min.

[2] = target: T2, Beta-galactosidase [24-677,I51T] (Human, UniProt P16278, I51T)
T2 construct: 24-677
Method: as §1

[3] = target: T3, Beta-galactosidase [24-677,R201C] (Human, UniProt P16278, R201C)
T3 construct: 24-677
Method: as §1

In the case of CCCC/N=C1\SC[C@@H]2[C@H](O)[C@H](O)[C@@H](O)CN12 [5N,6S-(N'-butyliminomethylidene)-6-thio-1-deoxygalactonojirimycin], the Ki [1] is reported as 68.3 µM, the Ki [2] is reported as 68.8 µM and the Ki [3] is reported as 53.3 µM.
CCCC/N=C1/SCC2[C@H](O)[C@H](O)C(O)[C@@H](O)N12 (stereo partly drawn) [5N,6S-(N'-butyliminomethylidene)-6-thiogalactonojirimycin] was tested, and the Ki [1] was 253 µM, the Ki [2] was 320 µM and the Ki [3] was 320 µM.
OC[C@H]1OC(O)[C@H](O)[C@@H](O)[C@H]1O (stereo not given in full) [Galactose] was tested, and the Ki [1] was 4140 µM, the Ki [2] was 4910 µM and the Ki [3] was 5610 µM.
In the case of CCCCNC(=S)N1CC(O)[C@@H](O)[C@@H](O)C1CO (stereo not given in full) [N-(N'-butylthiocarbamoyl)-1-deoxygalactonojirimycin], the Ki [1] is reported as 373 µM, the Ki [2] is reported as 329 µM and the Ki [3] is reported as 388 µM.
Compound CCCCCCCCN[C@H]1C=C(CO)[C@@H](O)[C@H](O)[C@H]1O [NOEV] has a Ki [1] of 1.1 µM, a Ki [2] of 1.2 µM and a Ki [3] of 0.94 µM.
